How the values were obtained:
[1] = tested on: hepatic fibrosis in male Wistar rats (bile duct ligation); test: Reverting hepatic fibrosis induced by ligation of the common bile duct in rats (Example 1); type: in vivo, rat; parameters: SODt (oxidative stress marker) / Catalase (oxidative stress marker) / HPT (oxidative stress marker) / MDA (oxidative stress marker): unit not given here; conditions: for Grade 0 (null) hepatic fibrosis, animals per group / Grade 1 (moderate) hepatic fibrosis, animals per group / Grade 2 (limited) hepatic fibrosis, animals per group / Grade 3 (severe) hepatic fibrosis, animals per group / Grade 4 (very severe) hepatic fibrosis, animals per group: three weeks; for GGT serum level / GOT serum level / GPT serum level / Content of OH—P (hydroxiproline) in liver: end of three weeks of treatment; for Catalase (oxidative stress marker) / HPT (oxidative stress marker) / MDA (oxidative stress marker) / SODt (oxidative stress marker): liver samples, end of third week of treatment
Procedure: The present experiment was conducted to evaluate the effect of the GHRP-6-based pharmaceutical composition on reverting the hepatic fibrosis in rats. Hepatic fibrosis was induced in male Wistar rats of 250 g of average body weight by ligating the external bile duct. For this purpose, rats were anesthetized with a ketamine/xylazine combination and subjected to laparotomy to expose the common bile duct. The duct was double-ligated with chromium catgut 4-0. After surgery, animals were randomly distributed into 3 experimental groups of 20 rats each: (1) Control placebo group, receiving physiological saline solution, (2) Group receiving the GHRP-6 at a 100 μg/kg dosage, and (3) Group receiving the GHRP-6 at a 400 μg/kg dosage. Treatments were daily administered during three weeks after inducing the fibrosis of the liver parenchyma. All the treatments were started three weeks after the appearance of fibrosis. The follow up of the hepatic damage was conducted by weekly ultrasound examinations of the projection area of this organ, the progress of serum levels of GOT and GPT transaminases, gamma glutamyl transferase (GGT) levels and the volume of ascitis. Treatments with GHRP-6 or placebo were applied by the intraperitoneal route once daily. When treatments concluded, animals were sacrificed and blood serum and the liver were collected. Liver fragments were fixed in formalin neutral and processed by hematoxylin/eosin staining, or by Masson's trichromic staining, to evaluate the general damage and the severity of fibrotic indurations. Other fragments of liver tissues were stored at −70° C. until processing to determine the content of hydroxiproline by acid hydrolysis in 1N HCl, and also the intrahepatic levels of redox metabolism markers. Biochemical determinations were carried out by calculating the total protein content by the Bradford's method.

[2] = tested on: pulmonary fibrosis in rats (Bleomycin); test: Control of pulmonary fibrosis induced by Bleomycin in rats (Example 4); type: in vivo, rat; conditions: 4 weeks; for Grade 0 pulmonary fibrosis (no evidences of fibrosis), animals per group / Grade 1 pulmonary fibrosis (predominantly vascular), animals per group / Grade 2 pulmonary fibrosis (additional peri-bronchial compromise), animals per group / Grade 3 pulmonary fibrosis (also interalveolar septum), animals per group: N = 15; for OH—P content (hydroxiproline) in lungs: end of treatment, 15 fragments per group
Procedure: In this case, the process as induced by sustained administration of the anti-neoplasic agent Bleomycin (Ble) at a 2.5 U/kg dosage twice a week during 4 weeks. […] This point forward, the administration of Ble was suspended and treatment with the pharmaceutical composition containing the GHRP-6 was started. The treatment was applied once daily, at 100 and 400 μg/kg in a 1 ml volume by intraperitoneal route during 4 weeks. […] When treatments concluded, the animals were sacrificed by anesthesia overdose and lungs and blood serum were collected. Tissue fragments were fixed in formalin neutral and processed by hematoxylin/eosin staining, or by Masson's trichromic staining, to evaluate the general damage and the severity of fibrotic indurations. Other fragments of lung tissues were stored at −70° C. until processing to determine the content of hydroxiproline by acid hydrolysis in 1N HCl, and also the […] levels of redox metabolism markers. Biochemical determinations were carried out by calculating the total protein content by the Bradford's method. Histological evaluation of the fibro-proliferative reaction in lungs includes the process of peri-vascular, peri-bronchial and septal fibrosis. The overall grade of pulmonary fibrosis was established according to the extension and intensity of the process in these three segments, to determine the percent of animals affected or unaffected at the end of the treatment with the GHRP-6. The numbers of animals in every group with fibrotic lungs according to the severity of fibrosis are:
Grade 0—No evidences of fibrosis or only thin and diffuse fiber or areolar material foci present, without respiratory compromise.
Grade 1—Fibrosis predominantly vascular in more than 75% of arterioles and capillaries.
Grade 2—Fibrosis predominantly vascular in more than 75% of arterioles and capillaries, with additional peri-bronchial compromise.
Grade 3—Fibrosis predominantly vascular in more than 75% of arterioles and capillaries, with additional peri-bronchial compromise. Fibrotic material is also detected in the interalveolar septum.

[3] = Dosage I: 100 μg/kg i.p. once daily, N = 16
[4] = Dosage I: 100 μg/kg i.p. once daily
[5] = Dosage II: 400 μg/kg i.p. once daily, N = 20
[6] = Dosage II: 400 μg/kg i.p. once daily

Substance: GHRP-6
- Grade 0 (null) hepatic fibrosis, animals per group [1, 3]: 5
- Grade 1 (moderate) hepatic fibrosis, animals per group [1, 3]: 9
- Grade 2 (limited) hepatic fibrosis, animals per group [1, 3]: 2
- Grade 3 (severe) hepatic fibrosis, animals per group [1, 3]: 0
- Grade 4 (very severe) hepatic fibrosis, animals per group [1, 3]: 0
- GGT serum level [1, 4]: 71.53 ± 22.14 U/I
- GOT serum level [1, 4]: 61.58 ± 16.10 IU/I
- GPT serum level [1, 4]: 81.71 ± 30.90 IU/I
- Content of OH—P (hydroxiproline) in liver [1, 3]: 56.71 ± 8.11 μg/g of total proteins
- Grade 0 (null) hepatic fibrosis, animals per group [1, 5]: 8
- Grade 1 (moderate) hepatic fibrosis, animals per group [1, 5]: 11
- Grade 2 (limited) hepatic fibrosis, animals per group [1, 5]: 1
- Grade 3 (severe) hepatic fibrosis, animals per group [1, 5]: 0
- Grade 4 (very severe) hepatic fibrosis, animals per group [1, 5]: 0
- GGT serum level [1, 6]: 25.56 ± 8.63 U/I
- GOT serum level [1, 6]: 30.41 ± 6.11 IU/I
- GPT serum level [1, 6]: 60.64 ± 19.87 IU/I
- Content of OH—P (hydroxiproline) in liver [1, 5]: 16.15 ± 1.025 μg/g of total proteins
- Deposit of collagenous and extracellular materials in liver parenchyma (overall result) ([1]; ligation of the common bile duct, morphological and biochemical data): eradicate and control the deposit of collagenous and extracellular materials in liver parenchyma
- Catalase (oxidative stress marker) ([1]; Dosage I: 100 μg/kg): 68.50 ± 12.73
- HPT (oxidative stress marker) ([1]; Dosage I: 100 μg/kg): 43.06 ± 1.83
- MDA (oxidative stress marker) ([1]; Dosage I: 100 μg/kg): 0.14 ± 0.02
- SODt (oxidative stress marker) ([1]; Dosage I: 100 μg/kg): 11058.07 ± 744.61
- Catalase (oxidative stress marker) ([1]; Dosage II: 400 μg/kg): 31.50 ± 4.3
- HPT (oxidative stress marker) ([1]; Dosage II: 400 μg/kg): 21.16 ± 1.71
- MDA (oxidative stress marker) ([1]; Dosage II: 400 μg/kg): 0.08 ± 0.01
- SODt (oxidative stress marker) ([1]; Dosage II: 400 μg/kg): 21029.87 ± 498.28
- Grade 0 pulmonary fibrosis (no evidences of fibrosis), animals per group [2, 4]: 3
- Grade 1 pulmonary fibrosis (predominantly vascular), animals per group [2, 4]: 10
- Grade 2 pulmonary fibrosis (additional peri-bronchial compromise), animals per group [2, 4]: 2
- Grade 3 pulmonary fibrosis (also interalveolar septum), animals per group [2, 4]: 0
- OH—P content (hydroxiproline) in lungs [2, 4]: 91.24 ± 16.84 μg/g of total proteins
- Grade 0 pulmonary fibrosis (no evidences of fibrosis), animals per group [2, 6]: 8
- Grade 1 pulmonary fibrosis (predominantly vascular), animals per group [2, 6]: 7
- Grade 2 pulmonary fibrosis (additional peri-bronchial compromise), animals per group [2, 6]: 0
- Grade 3 pulmonary fibrosis (also interalveolar septum), animals per group [2, 6]: 0
- OH—P content (hydroxiproline) in lungs [2, 6]: 12.75 ± 3.61 μg/g of total proteins
- Animals classified as grade 0 (pulmonary fibrosis) ([2]; dosage II: 400 μg/kg i.p. once daily): > 50%
